System: VEGF-induced HUVEC growth
Assay: VEGF-induced HUVEC growth reaction evaluation system (cell growth inhibitory action test)
Type: cell-based
Conditions: Homo sapiens, 72 h, 20 μg/ml test compound solution added 5 μl per well (100 μl), VEGF solution 400 ng/ml 5 μl per well, three days, absorbance at 450 nm, read-out: Cell growth inhibition rate (%)
Method: Cell growth inhibitory action tests were carried out using a VEGF-induced HUVEC growth reaction evaluation system (HUVEC stands for human umbilical vein endothelial cells), which is one of widely-used methods of evaluating in vitro angiogenesis inhibitory effects of drugs.
As one of widely-used methods of evaluating angiogenesis inhibitory effects of drugs, a cell growth inhibitory action test using a VEGF-induced HUVEC growth reaction evaluation system was reported in Cancer Res., 59, 99-106(1999). According to the method described in the above-mentioned literature, cell growth inhibitory action tests of the present compounds were carried out, their cell growth inhibition rates were calculated, and angiogenesis inhibitory effects of the present compounds were evaluated using the obtained rates as indexes.
Each test compound was dissolved in dimethyl sulfoxide (hereinafter abbreviated as “DMSO”), and the obtained solution was diluted with commercially available phosphoric acid buffer solution (hereinafter abbreviated as “PBS”) to prepare a 20 μg/ml test compound solution.
HUVEC was suspended in a 0.5% fetal bovine serum (hereinafter abbreviated as “FBS”)-containing F12K medium to prepare a 2×10^4 cells/ml HUVEC suspension.
VEGF was dissolved in 0.1% bovine serum albumin-containing PBS, and the obtained solution was diluted with the 0.5% FBS-containing F12K medium to prepare a 400 ng/ml VEGF solution.
• 1) The HUVEC suspension was inoculated in each amount of 100 μl into each well of a 96-well plate coated with I type collagen (2×10^3 cells per well). • 2) One day after inoculation, the test compound solution was added in an amount of 5 μl per well. • 3) One hour after adding the test compound solution, the VEGF solution was added in an amount of 5 μl per well. • 4) Three days after adding the VEGF solution, cell counting kit-8(Dojin Chemical Co., Ltd.) was added in an amount of 10 μl per well. • 5) After three hours, the above-mentioned plate was attached to an absorptiometer (multi label counter ARVO), and absorbance at 450 nm of each well suspension (hereinafter referred to as “test compound suspension”) was measured. • 6) A test was carried out in the same manner as in 1) to 5) except that 1.0% DMSO was used instead of the test compound solution.
Incubation was carried out under conditions of 37° C., 5% carbon dioxide and 95% air in an incubator throughout the above-mentioned test steps.
Cell growth inhibition rates, which are indexes of angiogenesis inhibitory effects, were calculated by the following calculation equation.

| SMILES | inhibition at 20 µg/mL (stock) [%] |
| --- | --- |
| O=C(Nc1cnc2ccccc2c1)c1cccnc1SCc1ccncc1 [1-20, 2-(4-Pyridylmethylthio)-N-(3-quinolyl)pyridine-3-carboxamide] | 100 |
| CC(C)c1cccc(NC(=O)c2cccnc2SCc2ccncc2)c1 [1-35, N-(3-Isopropylphenyl)-2-(4-pyridylmethylthio)pyridine-3-carboxamide] | 100 |
| CCCc1ccc(NC(=O)c2cccnc2SCc2ccncc2)cc1 [1-49, N-(4-n-Propylphenyl)-2-(4-pyridylmethylthio)pyridine-3-carboxamide] | 100 |
| CCCCc1ccc(NC(=O)c2cccnc2SCc2ccncc2)cc1 [1-50, N-(4-n-Butylphenyl)-2-(4-pyridylmethylthio)pyridine-3-carboxamide] | 94 |
| CC(C)Oc1ccc(NC(=O)c2cccnc2SCc2ccncc2)cc1 [1-55, N-(4-Isopropoxyphenyl)-2-(4-pyridylmethylthio)pyridine-3-carboxamide] | 100 |
| CCOC(=O)Cc1ccc(NC(=O)c2cccnc2SCc2ccncc2)cc1 [1-61, N-(4-Ethoxycarbonylmethylphenyl)-2-(4-pyridylmethylthio)pyridine-3-carboxamide] | 65 |
| CN(C)c1ccc(NC(=O)c2cccnc2SCc2ccncc2)cc1 [1-64, N-(4-Dimethylaminophenyl)-2-(4-pyridylmethylthio)pyridine-3-carboxamide] | 100 |
| O=C(Nc1ccc(Cl)cc1F)c1cccnc1SCc1ccncc1 [1-69, N-(4-Chloro-2-fluorophenyl)-2-(4-pyridylmethylthio)pyridine-3-carboxamide] | 95 |
| O=C(Nc1ccc(F)cc1F)c1cccnc1SCc1ccncc1 [1-70, N-(2,4-Difluorophenyl)-2-(4-pyridylmethylthio)pyridine-3-carboxamide] | 58 |
| COc1ccc(NC(=O)c2cccnc2SCc2ccncc2)cc1OC [1-72, N-(3,4-Dimethoxyphenyl)-2-(4-pyridylmethylthio)pyridine-3-carboxamide] | 100 |
| O=C(Nc1ccc(Cl)c(C(F)(F)F)c1)c1cccnc1SCc1ccncc1 [1-74, N-(4-Chloro-3-trifluoromethylphenyl)-2-(4-pyridylmethylthio)pyridine-3-carboxamide] | 100 |
| O=C(Nc1ccc(F)c(Cl)c1)c1cccnc1SCc1ccncc1 [1-75, N-(3-Chloro-4-fluorophenyl)-2-(4-pyridylmethylthio)pyridine-3-carboxamide] | 100 |
| O=C(Nc1ccc(F)c(C(F)(F)F)c1)c1cccnc1SCc1ccncc1 [1-77, N-(4-Fluoro-3-trifluoromethylphenyl)-2-(4-pyridylmethylthio)pyridine-3-carboxamide] | 100 |
| Cc1ccc(NC(=O)c2cccnc2SCc2ccncc2)cc1Cl [1-78, N-(3-Chloro-4-methylphenyl)-2-(4-pyridylmethylthio)pyridine-3-carboxamide] | 100 |
| Cc1cc(NC(=O)c2cccnc2SCc2ccncc2)ccc1Cl [1-79, N-(4-Chloro-3-methylphenyl)-2-(4-pyridylmethylthio)pyridine-3-carboxamide] | 100 |
| O=C(Nc1cc(F)cc(C(F)(F)F)c1)c1cccnc1SCc1ccncc1 [1-83, N-(3-Fluoro-5-trifluoromethylphenyl)-2-(4-pyridylmethylthio)pyridine-3-carboxamide] | 100 |
| O=C(Nc1cc(Cl)cc(Cl)c1)c1cccnc1SCc1ccncc1 [1-84, N-(3,5-Dichlorophenyl)-2-(4-pyridylmethylthio)pyridine-3-carboxamide] | 100 |
| COc1cc(OC)c(NC(=O)c2cccnc2SCc2ccncc2)cc1Cl [1-85, N-(5-Chloro-2,4-dimethoxyphenyl)-2-(4-pyridylmethylthio)pyridine-3-carboxamide] | 95 |
| O=C(Nc1cccc(Cl)c1)c1ccccc1SCc1ccncc1 [1-90, N-(3-Chlorophenyl)-2-(4-pyridylmethylthio)benzamide] | 100 |
| CN(C)c1ccc(NC(=O)c2ccccc2SCc2ccncc2)cc1 [1-91, N-(4-Dimethylaminophenyl)-2-(4-pyridylmethylthio)benzamide] | 100 |

| SMILES | inhibition at 20 µg/mL (stock) [%] |
| --- | --- |
| CC(C)c1cccc(NC(=O)c2ccccc2SCc2ccncc2)c1 [1-92, N-(3-Isopropylphenyl)-2-(4-pyridylmethylthio)benzamide] | 100 |
| COc1ccc(NC(=O)c2ccccc2SCc2ccncc2)cc1OC [1-93, N-(3,4-Dimethoxyphenyl)-2-(4-pyridylmethylthio)benzamide] | 72 |
| O=C(Nc1cnc2ccccc2c1)c1ccccc1SCc1ccncc1 [1-95, 2-(4-Pyridylmethylthio)-N-(3-quinolyl)benzamide] | 100 |
| COc1cc(OC)c(NC(=O)c2ccccc2SCc2ccncc2)cc1Cl [1-102, N-(5-Chloro-2,4-dimethoxyphenl)-2-(4-pyridylmethylthio)benzamide] | 55 |
| Cc1cc(NC(=O)c2ccccc2SCc2ccncc2)ccc1Br [1-111, N-(4-Bromo-3-methylphenyl)-2-(4-pyridylmethylthio)benzamide] | 100 |
| Cc1cc(NC(=O)c2cccnc2SCc2ccncc2)ccc1OC(F)(F)F [1-175, N-(3-Methyl-4-trifluoromethoxyphenyl)-2-(4-pyridylmethylthio)pyridine-3-carboxamide] | 100 |
| O=C(Nc1cc2ccccc2cn1)c1ccccc1SCc1ccncc1 [1-209, N-(3-Isoquinolyl)-2-(4-pyridylmethylthio)benzamide] | 99 |
| Cc1cc(C)cc(NC(=O)c2cccnc2SCc2ccnc(F)c2)c1 [1-213, N-(3,5-Dimethylphenyl)-2-(2-fluoropyridin-4-ylmethylthio)pyridine-3-carboxamide] | 100 |
| O=C(Nc1ccc(OC(F)(F)F)cc1)c1cccnc1SCc1ccnc(F)c1 [1-214, 2-(2-Fluoropyridin-4-ylmethylthio)-N-(4-trifluoromethoxyphenyl)pyridine-3-carboxamide] | 92 |
| O=C(Nc1ccc2c(c1)CCC2)c1cccnc1SCc1ccnc(F)c1 [1-215, 2-(2-Fluoropyridin-4-ylmethylthio)-N-(5-indanyl)pyridine-3-carboxamide] | 100 |
| O=C(Nc1ccc2c(c1)CCC2)c1cccnc1SCc1ccnc(Cl)c1 [1-216, 2-(2-Chloropyridin-4-ylmethylthio)-N-(5-indanyl)pyridine-3-carboxamide] | 100 |
| Cc1cc(C)cc(NC(=O)c2cccnc2SCc2ccnc(Cl)c2)c1 [1-226, 2-(2-Chloropyridin-4-ylmethylthio)-N-(3,5-dimethylphenyl)pyridine-3-carboxamide] | 100 |
| O=C(Nc1ccc(OC(F)(F)F)cc1)c1cccnc1SCc1ccnc(Cl)c1 [1-227, 2-(2-Chloropyridin-4-ylmethylthio)-N-(4-trifluoromethoxyphenyl)pyridine-3-carboxamide] | 60 |
| Cc1cc(C)cc(NC(=O)c2cccnc2SCc2ccncc2Cl)c1 [1-228, 2-(3-Chloropyridin-4-ylmethylthio)-N-(3,5-dimethylphenyl)pyridine-3-carboxamide] | 100 |
| CSc1cc(CSc2ncccc2C(=O)Nc2cc(C)cc(C)c2)ccn1 [1-231, N-(3,5-Dimethylphenyl)-2-(2-methylthiopyridin-4-ylmethylthio)pyridine-3-carboxamide] | 100 |
| CSc1cc(CSc2ncccc2C(=O)Nc2ccc(Cl)cc2)ccn1 [1-232, N-(4-Chlorophenyl)-2-(2-methylthiopyridin-4-ylmethylthio)pyridine-3-carboxamide] | 75 |
| Cc1cc(C)cc(NC(=O)c2cccnc2SCc2ccnc(C#N)c2)c1 [1-236, 2-(2-Cyanopyridin-4-ylmethylthio)-N-(3,5-dimethylphenyl)pyridine-3-carboxamide] | 100 |
| CCOC(=O)c1cc(CSc2ncccc2C(=O)Nc2cc(C)cc(C)c2)ccn1 [1-241, N-(3,5-dimethylphenyl)-2-(2-ethoxycarbonylpyridin-4-ylmethylthio)pyridine-3-carboxamide] | 96 |
| CC(C)Oc1ccc(NC(=O)c2sccc2SCc2ccncc2)cc1 [1-246, N-(4-Isopropoxyphenyl)-3-(4-pyridylmethylthio)thiophene-2-carboxamide] | 76 |

Reference: patent publication US8518973B2, “Compounds having 4-pyridylalkylthio group as a substituent” (Santen Pharmaceutical Co., Ltd., priority 2003, dated 2013)
